Source: patent US10392348B2, “2-oxo-3,4-dihydroquinoline compounds as plant growth regulators” (Syngenta Participations AG, priority 2015, dated 2019)
Like-named read-outs stand apart in the source and are kept apart here.

Tested on: soybean plants (variety S20-G7)
Assay: Reduced plant water use in soybean (foliar spray, repeated weighing of pots)
Assay type: in vivo
Conditions: vs negative control; for % WU 0 DAA AM*: 0 DAA a.m.; for % WU 0DAA PM: 0 DAA p.m.; for % WU 1DAA AM: 1 DAA a.m.; for % WU 1DAA PM: 1 DAA p.m.; for % WU 2 DAA AM: 2 DAA a.m.; for % WU 2 DAA PM: 2 DAA p.m.; for change in vivo at 500 µM: Glycine max, foliar, Table B1, sprayed at 500 μM
Procedure: Compounds were tested for their effect on reducing plant water use as follows. Each compound was dissolved in a blank emulsifiable concentrate (EC) formulation that was then diluted to the desired concentration with water containing additional surfactant (EXTRAVON 1 g/20 L). The compounds were applied by foliar spray to 12 day old soybean plants (variety S20-G7) grown in controlled environment plant growth chambers. Plant water use during the day was assessed by repeated weighing of the pots in which the plants were grown before and after application of the compounds at the indicated times (expressed in days after application (DAA)). The water use data before application was used to correct any differences in water use arising due to non-treatment effects (e.g. due to differences in plant size). The untransformed water use values were subjected to an analysis of covariance, fitting the effect of treatment and using the baseline water use 1 day before application as a covariate.
The results are expressed compared to negative control treatment (diluted EC formulation without active ingredient but with EXTRAVON 1 g/20 L).
Application of the chemicals (0 DAA) takes place approximately between 08:00 and 09:30 a.m. WU is measured within day time (chamber light is on 06:00 to 20:00) at these timepoints: 0 DAA a.m. (10:30-12:50), 0 DAA p.m. (14:00-19:50), 1 DAA a.m. (7:30-12:50), 1 DAA p.m. (14:00-19:50), 2 DAA a.m. (07:30-12:50) and 2 DAA p.m. (14:00-19:50). The cumulative total WU (0-2.5 DAA) is calculated by summing the WU data mentioned above.

[1] = 0 h, 0 DAA a.m. (10:30-12:50), read-out: % WU 0 DAA AM
[2] = 24 h, 1 DAA a.m. (7:30-12:50), read-out: % WU 1DAA AM
[3] = 24 h, 1 DAA p.m. (14:00-19:50), read-out: % WU 1DAA PM
[4] = 48 h, 2 DAA a.m. (07:30-12:50), read-out: % WU 2 DAA AM
[5] = 48 h, 2 DAA p.m. (14:00-19:50), read-out: % WU 2 DAA PM
[6] = 60 h, cumulative total WU (0-2.5 DAA), read-out: % WU Total 0 to 2.5 DAA

## CCCN1C(=O)CCc2cc(NS(=O)(=O)Cc3ccc(C)cc3)ccc21 [Quinabactin, quinabactin, reference compound]
Table B2, rate 31.25 uM
  % WU 0 DAA AM*: −0.3%
  % WU 0DAA PM: −0.3%
  % WU 1DAA AM: 0.2%
  % WU 1DAA PM: −0.1%
  % WU 2 DAA AM: −0.9%
  % WU 2 DAA PM: −1.3%
Table B2, rate 31.25 uM, cumulative total WU (0-2.5 DAA)
  % WU Total 0 to 2.5 DAA: −0.7%
Table B2, rate 125 uM
  % WU 0 DAA AM*: −15.3%
  % WU 0DAA PM: −5.7%
  % WU 1DAA AM: 1.8%
  % WU 1DAA PM: 2.9%
  % WU 2 DAA AM: 2.4%
  % WU 2 DAA PM: 1.1%
Table B2, rate 125 uM, cumulative total WU (0-2.5 DAA)
  % WU Total 0 to 2.5 DAA: −0.5%
Table B2, rate 500 uM
  % WU 0 DAA AM*: −42.0%
  % WU 0DAA PM: −41.2%
  % WU 1DAA AM: −18.6%
  % WU 1DAA PM: −10.8%
  % WU 2 DAA AM: −3.8%
  % WU 2 DAA PM: −2.9%
Table B2, rate 500 uM, cumulative total WU (0-2.5 DAA)
  % WU Total 0 to 2.5 DAA: −16.9%

## COCCN1C(=O)CCc2cc(CNS(=O)(=O)c3ccccc3)ccc21 [Compound 13.001, N-[[1-(2-methoxyethyl)-2-oxo-3,4-dihydroquinolin-6-yl]methyl]benzenesulfonamide]
[1]
  change in vivo at 500 µM: -15.1%
[2]
  change in vivo at 500 µM: -11%
[3]
  change in vivo at 500 µM: -11%
[4]
  change in vivo at 500 µM: -8.9%
[5]
  change in vivo at 500 µM: -9.2%
[6]
  change in vivo at 500 µM: -11.1%

## O=C1CCc2cc(CNS(=O)(=O)c3ccccc3)ccc2N1CC(F)(F)F [Compound 11.001, N-[[2-oxo-1-(2,2,2-trifluoroethyl)-3,4-dihydroquinolin-6-yl]methyl]benzenesulfonamide]
[1]
  change in vivo at 500 µM: -20.8%
[2]
  change in vivo at 500 µM: -26.2%
[3]
  change in vivo at 500 µM: -27.6%
[4]
  change in vivo at 500 µM: -26.9%
[5]
  change in vivo at 500 µM: -26.9%
[6]
  change in vivo at 500 µM: -26.1%

## CC1CC(=O)N(CC2CC2)c2ccc(CNS(=O)(=O)c3ccccc3)cc21 (stereo not drawn) [Compound 24.001, N-[[1-(cyclopropylmethyl)-4-methyl-2-oxo-3,4-dihydroquinolin-6-yl]methyl]benzenesulfonamide]
[1]
  change in vivo at 500 µM: -35.3%
[2]
  change in vivo at 500 µM: -42.8%
[3]
  change in vivo at 500 µM: -42.8%
[4]
  change in vivo at 500 µM: -39.9%
[5]
  change in vivo at 500 µM: -38.3%
[6]
  change in vivo at 500 µM: -40.6%

## COCCN1C(=O)CCc2cc(CNS(=O)(=O)c3ccc(F)cc3F)ccc21 [Compound 13.006, 2,4-difluoro-N-[[1-(2-methoxyethyl)-2-oxo-3,4-dihydroquinolin-6-yl]methyl]benzenesulfonamide]
[1]
  change in vivo at 500 µM: -9.8%
[2]
  change in vivo at 500 µM: -9.3%
[3]
  change in vivo at 500 µM: -10.1%
[4]
  change in vivo at 500 µM: -9.6%
[5]
  change in vivo at 500 µM: -10.3%
[6]
  change in vivo at 500 µM: -10.1%

## CCN1C(=O)CC(C)c2cc(CNS(=O)(=O)c3ccccc3)cc(C)c21 (stereo not drawn) [Compound 16.001, N-[(1-ethyl-4,8-dimethyl-2-oxo-3,4-dihydroquinolin-6-yl)methyl]benzenesulfonamide]
[1]
  change in vivo at 500 µM: -39%
[2]
  change in vivo at 500 µM: -49%
[3]
  change in vivo at 500 µM: -48.1%
[4]
  change in vivo at 500 µM: -45.7%
[5]
  change in vivo at 500 µM: -44.5%
[6]
  change in vivo at 500 µM: -46%

## O=C1CCc2cc(CNS(=O)(=O)c3ccccc3)ccc2N1CC1CC1 [Compound 10.001, N-[[1-(cyclopropylmethyl)-2-oxo-3,4-dihydroquinolin-6-yl]methyl]benzenesulfonamide]
[1]
  change in vivo at 500 µM: -25.2%
[2]
  change in vivo at 500 µM: -23.8%
[3]
  change in vivo at 500 µM: -22.7%
[4]
  change in vivo at 500 µM: -14.9%
[5]
  change in vivo at 500 µM: -14.7%
[6]
  change in vivo at 500 µM: -20.8%

## CCCN1C(=O)CCc2cc(CNS(=O)(=O)c3ccccc3)cc(F)c21 [Compound 17.001, N-[(8-fluoro-2-oxo-1-propyl-3,4-dihydroquinolin-6-yl)methyl]benzenesulfonamide]
[1]
  change in vivo at 500 µM: -41.6%
[2]
  change in vivo at 500 µM: -38%
[3]
  change in vivo at 500 µM: -36.3%
[4]
  change in vivo at 500 µM: -27.1%
[5]
  change in vivo at 500 µM: -26.3%
[6]
  change in vivo at 500 µM: -34.7%

## C=CCN1C(=O)CC(C)c2cc(CNS(=O)(=O)c3ccccc3)ccc21 (stereo not drawn) [Compound 25.001, N-[(1-allyl-4-methyl-2-oxo-3,4-dihydroquinolin-6-yl)methyl]benzenesulfonamide]
[1]
  change in vivo at 500 µM: -28.2%
[2]
  change in vivo at 500 µM: -41%
[3]
  change in vivo at 500 µM: -39.6%
[4]
  change in vivo at 500 µM: -38.1%
[5]
  change in vivo at 500 µM: -36.7%
[6]
  change in vivo at 500 µM: -37.9%

## CCN1C(=O)CC(C)c2cc(CNS(=O)(=O)c3ccccc3)cc(F)c21 (stereo not drawn) [Compound 22.001, N-[(1-ethyl-8-fluoro-4-methyl-2-oxo-3,4-dihydroquinolin-6-yl)methyl]benzenesulfonamide]
[1]
  change in vivo at 500 µM: -46.1%
[2]
  change in vivo at 500 µM: -55.8%
[3]
  change in vivo at 500 µM: -53%
[4]
  change in vivo at 500 µM: -55.1%
[5]
  change in vivo at 500 µM: -50.1%
[6]
  change in vivo at 500 µM: -52.1%

## CCCn1c(=O)ccc2cc(CNS(=O)(=O)c3ccc(F)cc3)ccc21 [Compound 7.009, 4-fluoro-N-[(2-oxo-1-propyl-6-quinolyl)methyl]benzenesulfonamide]
[1]
  change in vivo at 500 µM: -8.1%
[2]
  change in vivo at 500 µM: -3.6%
[3]
  change in vivo at 500 µM: -3.5%
[4]
  change in vivo at 500 µM: -4%
[5]
  change in vivo at 500 µM: -1.7%
[6]
  change in vivo at 500 µM: -4.1%

## C=CCN1C(=O)CCc2cc(CNS(=O)(=O)c3ccc(F)cc3F)ccc21 [Compound 5.006, N-[(1-allyl-2-oxo-3,4-dihydroquinolin-6-yl)methyl]-2,4-difluoro-benzenesulfonamide]
[1]
  change in vivo at 500 µM: -13.6%
[2]
  change in vivo at 500 µM: -12.5%
[3]
  change in vivo at 500 µM: -11.5%
[4]
  change in vivo at 500 µM: -9.7%
[5]
  change in vivo at 500 µM: -9.9%
[6]
  change in vivo at 500 µM: -11.4%

## O=C1CCc2cc(CNS(=O)(=O)c3ccc(F)cc3F)ccc2N1CC1CC1 [Compound 10.006, N-[[1-(cyclopropylmethyl)-2-oxo-3,4-dihydroquinolin-6-yl]methyl]-2,4-difluoro-benzenesulfonamide]
[1]
  change in vivo at 500 µM: -22.4%
[2]
  change in vivo at 500 µM: -18.5%
[3]
  change in vivo at 500 µM: -18.2%
[4]
  change in vivo at 500 µM: -16.9%
[5]
  change in vivo at 500 µM: -17.8%
[6]
  change in vivo at 500 µM: -18.6%

## O=C1CCc2cc(CNS(=O)(=O)c3ccc(F)cc3F)ccc2N1CC(F)(F)F [Compound 11.006, 2,4-difluoro-N-[[2-oxo-1-(2,2,2-trifluoroethyl)-3,4-dihydroquinolin-6-yl]methyl]benzenesulfonamide]
[1]
  change in vivo at 500 µM: -13%
[2]
  change in vivo at 500 µM: -15.3%
[3]
  change in vivo at 500 µM: -15.7%
[4]
  change in vivo at 500 µM: -16.4%
[5]
  change in vivo at 500 µM: -16.5%
[6]
  change in vivo at 500 µM: -15.8%

## CCCn1c(=O)ccc2cc(CNS(=O)(=O)c3ccc(F)cc3F)ccc21 [Compound 7.006, 2,4-difluoro-N-[(2-oxo-1-propyl-6-quinolyl)methyl]benzenesulfonamide]
[1]
  change in vivo at 500 µM: -14.6%
[2]
  change in vivo at 500 µM: -6.7%
[3]
  change in vivo at 500 µM: -4.2%
[4]
  change in vivo at 500 µM: -4.2%
[5]
  change in vivo at 500 µM: 0%
[6]
  change in vivo at 500 µM: -6.1%

## CC1CC(=O)N(CC(F)(F)F)c2ccc(CNS(=O)(=O)c3ccccc3)cc21 (stereo not drawn) [Compound 23.001, N-[[4-methyl-2-oxo-1-(2,2,2-trifluoroethyl)-3,4-dihydroquinolin-6-yl]methyl]benzenesulfonamide]
[1]
  change in vivo at 500 µM: -31.3%
[2]
  change in vivo at 500 µM: -39.7%
[3]
  change in vivo at 500 µM: -40.8%
[4]
  change in vivo at 500 µM: -35.9%
[5]
  change in vivo at 500 µM: -37.3%
[6]
  change in vivo at 500 µM: -37.7%
